Laboratory results from patent publication EP3810127B1, “USE OF MILBEMYCIN OXIME AGAINST SEA LICE ON FISH” (Pharmaq AS, priority 2018, dated 2019).
Read-outs that look alike come from different tables or passages of the source.

Tests used:
[1] = test system: preadult salmon lice with reduced sensitivity; experiment: in-vitro 1 hour exposure of preadult lice in sea water
salmon lice = conditions: one hour bath on Day 1, lice counted on Day 3
[2] = test system: copepodids from salmon lice with reduced sensitivity; experiment: in-vitro 1 hour exposure of copepodids in sea water; conditions: exposed 1 hour, 96 hours post-exposure
[3] = test system: adult stages of L. salmonis; experiment: in-vivo bath exposure of Atlantic salmon infested with adult lice; conditions: one hour bath, female lice counted on Day 3
Procedure: In a separate in-vivo study, Atlantic salmon infested with adult stages of L. salmonis were housed in a 500L tank with sea water at 12°C before drug exposure. Fish were randomly extracted from the holding tank and distributed to the treatment containers (n=14/container). […] Fish were then transferred to observation tanks. Fish were dosed with 500ppb, 250ppb, 125ppb, and 62.5ppb milbemycin oxime. […] On Day 3, fish were terminated and the number of female salmon lice were counted on each of the fish. Milbemycin oxime was 100% efficacious against the sea lice at all dose levels.

sea lice [4] = conditions: injectable composition, cited from earlier work
[5] = test system: adult reduced sensitivity lice; experiment: in-vitro 1 hour exposure of adult lice in sea water; set-up: species or system salmon lice; conditions: exposed 1 hour, 48 hours post-exposure
sea lice [6] = conditions: cited from earlier work

Compound: milbemycin oxime
- state of preadult lice ([1]; 5ppb, exposed 1 hour, 48 hours post-exposure): all were moribund
- more effective at killing sea lice than VS55759 ([1]; milbemycin oxime at 5ppb compared with VS55759 at 50ppb (60% morbidity)): at least 10 x
- efficacious against adult sea lice (salmon lice; 7.8ppb): 100%
- Efficacy (salmon lice; 15.6ppb, remaining living lice loosely attached to the caudal fin): 66.6%
- efficacious against adult sea lice (salmon lice; 31.3ppb): 100%
- efficacious against adult sea lice (salmon lice; 62.5ppb): 100%
- state of copepodids ([2]; 12.5ppb): moribund
- state of copepodids ([2]; 25ppb): moribund
- state of copepodids ([2]; 50ppb): moribund
- efficacious against the sea lice ([3]; 62.5ppb): 100%
- efficacious against the sea lice ([3]; 125ppb): 100%
- efficacious against the sea lice ([3]; 250ppb): 100%
- efficacious against the sea lice ([3]; 500ppb): 100%
- efficacy against sea lice (sea lice [4]; dose of 0.5mg/kg): not efficacious
- moribund rate ([5]; 2ppb): 82%
- state of adult lice ([5]; 10ppb): all dead or moribund
- state of adult lice ([5]; 25ppb): all dead or moribund

Compound: O=C(NC(=O)c1c(F)cccc1F)Nc1cc(Cl)c(OC(F)(F)C(F)C(F)(F)F)cc1Cl (stereo not drawn) [lufenuron]
- efficacy against sea lice (sea lice [4]; 50mg/kg): provided efficacy

Compound: 23(S)-t-butyloxyimino-25(S)-t-butyl milbemycin X [VS55759]
- efficacious against sea lice (sea lice [6]; 0.1ppm (100ppb) in a bath solution): efficacious
- effective against sea lice (sea lice [6]; 100ppb dose, immersion): 100%

Compound: O=C(NC(=O)c1c(F)cccc1F)Nc1cc(Cl)c(OC(F)(F)C(F)F)c(Cl)c1 [hexaflumuron]
- efficacy against sea lice (sea lice [4]; 50mg/kg): provided efficacy
